Measured values published in publication PMC10488055, “Investigation of Potential cGMP-Specific PDE V and Aminopeptidase N Inhibitors of Allium ampeloprasum L. and Its Bioactive Components: Kinetic and Molecular Docking Studies” (International Journal of Molecular Sciences, 2023).
Like-named read-outs stand apart in the source and are kept apart here.

How the values were obtained:
Assay type in all cases: biochemical
aminopeptidase N (APN) = target: T1, aminopeptidase N (APN) (Homo sapiens, UniProt P15144); assay: Aminopeptidase N (APN) enzyme activity assay with L-p-NA substrate; settings: for inhibition of APN in in vitro enzyme assay: at the highest concentration; for enzymatic activity of APN: treatment with 10 mM, without sample 0.38 U
T1 construct: purchased Sigma-Aldrich
T1 sequence (P15144 whole entry, species assumed): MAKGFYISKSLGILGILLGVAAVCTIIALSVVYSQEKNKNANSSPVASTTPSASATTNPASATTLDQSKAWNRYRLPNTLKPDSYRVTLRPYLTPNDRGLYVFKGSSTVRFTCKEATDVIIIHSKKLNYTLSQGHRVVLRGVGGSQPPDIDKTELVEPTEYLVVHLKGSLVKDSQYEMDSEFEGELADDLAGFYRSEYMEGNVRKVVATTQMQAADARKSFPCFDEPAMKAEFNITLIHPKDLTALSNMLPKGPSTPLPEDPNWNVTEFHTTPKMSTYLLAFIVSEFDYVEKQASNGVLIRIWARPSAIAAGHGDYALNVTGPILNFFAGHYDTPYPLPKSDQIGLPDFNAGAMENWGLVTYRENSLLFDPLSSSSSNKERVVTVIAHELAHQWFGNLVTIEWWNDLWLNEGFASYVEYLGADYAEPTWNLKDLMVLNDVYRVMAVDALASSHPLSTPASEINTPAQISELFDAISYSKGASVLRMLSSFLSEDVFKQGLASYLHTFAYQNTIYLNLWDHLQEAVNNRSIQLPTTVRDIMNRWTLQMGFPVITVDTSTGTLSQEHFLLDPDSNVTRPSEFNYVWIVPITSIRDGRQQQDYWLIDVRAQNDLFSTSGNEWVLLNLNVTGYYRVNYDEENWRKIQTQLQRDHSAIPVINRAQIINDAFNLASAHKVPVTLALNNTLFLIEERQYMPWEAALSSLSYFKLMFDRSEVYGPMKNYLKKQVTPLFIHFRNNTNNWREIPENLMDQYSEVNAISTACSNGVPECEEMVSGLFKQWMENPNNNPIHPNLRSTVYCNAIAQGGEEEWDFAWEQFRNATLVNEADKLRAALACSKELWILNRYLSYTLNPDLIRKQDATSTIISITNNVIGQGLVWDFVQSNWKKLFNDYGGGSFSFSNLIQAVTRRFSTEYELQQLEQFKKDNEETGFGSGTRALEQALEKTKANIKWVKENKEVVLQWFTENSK
Description: Figure 2 Effects of AAE and AAE-derived compounds on APN activity. […] The reaction was started by adding 20 μL enzyme solution (1 mU) and incubated for 60 min at 37 °C. The absorbance of samples were measured at 405 nm to determine the formation of p-nitroaniline. Each value is the mean ± SD of triplicate measurements. * p < 0.05 and ** p < 0.01, compared to each control group (Con). Con, control group treated enzyme only.
The activity of APN was determined according to Melzig et al.. Briefly, the enzyme substrate L-p-NA (2 mM) was dissolved in 50 mM N-(2-hydroxyethyl)piperazine-N’-2ethansulfonic acid (HEPES) buffer (pH 7.4) containing 154 mM NaCl. […] The reaction was started by adding 20 μL enzyme solution (approximately 1 mU in HEPES-buffer) and incubated for 60 min at 37 °C. The samples were measured spectrophotometrically at 405 nm to determine the formation of p-nitroanilmne. APN inhibitory activity (%) = ([Absorbance control without sample − Absorbance control with sample]/Absorbance control without sample) × 100

PDE5 = PDE5 (Homo sapiens, UniProt O76074); assay: Kinetic assay (Lineweaver–Burk) on PDE5;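 on Kcat: pure compound doses in mM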; parameters: Vmax / Kcat: unit of the concentration uncertain; settings: for Kik/Kiv / Ki: PDE5; for Kik/Kiv: ratio according to Yang et al. [27]; for inhibition type against PDE5: from changes of Km and 1/Vmax (Lineweaver–Burk), putative decision system [27]; for Vmax value of PDE5, fold of non-treated group: non-treated 1.039 mU/min = 1.0-fold
Description: (§1) Lineweaver–Burk plots were employed to analyze the inhibition of the target enzyme. These plots were represented as 1/velocity (1/V) versus 1/substrate concentration (1/[S]) in the presence or absence of each sample (non-treated (black circle), 10 μg or 1 mM (orange circle), 20 μg or 2 mM (silver circle), 50 μg or 5 mM (yellow circle), and 100 μg or 10 mM (blue circle)) as an inhibitor against PDE5.
(§2) These reactions were conducted in a total volume of 80 μL. by a previously described method. The Michaelis–Menten constant (Km) and maximal velocity (Vmax) were calculated using the x and y intercepts, respectively. […] Additionally, the Kik and Kiv inhibition constants were calculated using previously described methods.

APN = target: T2, APN (Homo sapiens, UniProt P15144); assay: Kinetic assay (Lineweaver–Burk) on APN; settings: for inhibition type against APN: from Kik/Kiv ratio, new decision system [27]; for Vmax value of APN, fold of non-treated group: non-treated 0.316 mU/min = 1.0-fold
T2 construct: purchased Sigma-Aldrich
T2 sequence (P15144 whole entry, species assumed): as above
Description: as §1, with “(1/(S))” for “(1/[S])”, “(blue” for “(orange”, “(green” for “(silver”, “(orange” for “(yellow”, “(purple” for “(blue”, “APN.” for “PDE5.”
as §2

[1] = target: cGMP-specific PDE V (PDE5) (Homo sapiens, UniProt O76074); assay: cGMP-specific PDE V (PDE5) enzyme activity assay with p-NPPPh substrate; settings: for inhibition rate of PDE5: at the highest concentration (in vitro enzyme assay); for reduction of PDE5 enzymatic activity: range over 1, 2, 5, and 10 mM
Description: Following the addition of 10 mM p-NPPPh, the reaction mixture was incubated at 37 °C for 10 min. After the incubation period, the concentration of liberated 4-nitrophenol was determined by measuring its absorbance values at a wavelength of 405 nm using a microplate reader. […] Con, control group treated enzyme only.
The specific substrate used for PDE5 was p-NPPPh, following a previously described method. The enzyme solution was prepared by adding 1 U of PDE5 to a volume of 10 μL in 40 mM Tris-HCl buffer at pH 7.4. The substrate solution (10 mM) was prepared by dissolving the substrate in Tris-HCl buffer at pH 7.4. […] Following the pretreatment, the reaction was initiated and allowed to continue for an additional 10 min at 37 °C upon the addition of 10 mM p-NPPPh in a total reaction volume of 80 μL. Following the incubation period, the absorbance of the mixture was measured at 405 nm using a microplate reader. The enzyme activity was quantified in units, where one unit corresponds to the amount of enzyme needed to hydrolyze 1 micromol of p-NPPPh. The inhibitory activity of PDE5 (%) was calculated by determining the residual activity (U). PDE5 inhibitory activity (%) = ([Residual unit control without sample − Residual unit control with sample]/Residual unit control without sample) × 100

[2] = PDE5 treated with compound 1 (unit uncertain)
[3] = PDE5 treated with compound 2 (unit uncertain)
[4] = PDE5 treated with compound 5 (unit uncertain)
[5] = PDE5 treated with compound 10 (unit uncertain)
[6] = APN treated with compound 10 mM
[7] = APN, calculated by method of ref 27, read-out: Kik
[8] = APN, calculated by method of ref 27, read-out: Kiv

Row | SMILES | inhibition of APN in in vitro enzyme assay (aminopeptidase N (APN)) | enzymatic activity of APN (aminopeptidase N (APN)) | Kcat (PDE5; [2]) | Vmax (PDE5; [2]) | Kcat (PDE5; [3]) | Vmax (PDE5; [3]) | Kcat (PDE5; [4]) | Vmax (PDE5; [4]) | Kcat (PDE5; [5]) | Vmax (PDE5; [5]) | inhibition type against PDE5 (PDE5) | Kcat (APN; APN treated with compound 1 mM) | Vmax (APN; APN treated with compound 1 mM) | Kcat (APN; APN treated with compound 2 mM) | Vmax (APN; APN treated with compound 2 mM) | Kcat (APN; APN treated with compound 5 mM) | Vmax (APN; APN treated with compound 5 mM) | Kcat (APN; [6]) | Vmax (APN; [6]) | Ki (APN; APN, read-out: Ki) | also measured
1 | C=CCSSCC=C [DADS, diallyl disulfide] | 11% | 0.34 ± 0.02 U | 7253 ± 189 k s^−1 | 0.959 ± 0.025 mU/min | 6625 ± 159 k s^−1 | 0.876 ± 0.021 mU/min | 5905 ± 83 k s^−1 | 0.781 ± 0.011 mU/min | 4383 ± 76 k s^−1 | 0.580 ± 0.010 mU/min | noncompetitive-type | 394.8 ± 3.7 s⁻¹ | 0.318 ± 0.003 mU/min | 379.5 ± 7.4 s⁻¹ | 0.306 ± 0.006 mU/min | 368.8 ± 6.2 s⁻¹ | 0.297 ± 0.005 mU/min | 364.9 ± 5.0 s⁻¹ | 0.294 ± 0.004 mU/min | 65.7 mM | IC50 (aminopeptidase N (APN)): > 10 mM; Kik/Kiv (PDE5): 16.0; Vmax value of PDE5, fold of non-treated group (PDE5; highest concentration): 0.56 fold; inhibition type against APN (APN): uncompetitive-type; Vmax value of APN, fold of non-treated group (APN; highest concentration): 0.93 fold
2 | C=CCSSSCC=C [DATS, diallyl trisulfide] | 19% | 0.31 ± 0.02 U | 7105 ± 197 k s^−1 | 0.940 ± 0.026 mU/min | 6757 ± 242 k s^−1 | 0.894 ± 0.032 mU/min | 4955 ± 174 k s^−1 | 0.655 ± 0.023 mU/min | 3371 ± 144 k s^−1 | 0.446 ± 0.019 mU/min | noncompetitive-type | 368.9 ± 7.4 s⁻¹ | 0.297 ± 0.006 mU/min | 365.3 ± 6.2 s⁻¹ | 0.294 ± 0.005 mU/min | 309.2 ± 5.0 s⁻¹ | 0.249 ± 0.004 mU/min | 285.9 ± 5.0 s⁻¹ | 0.230 ± 0.004 mU/min | 18.7 mM | Ki (PDE5): 7.53 mM; Kik/Kiv (PDE5): 17.8; Vmax value of PDE5, fold of non-treated group (PDE5; highest concentration): 0.43 fold; Ki (APN; [7]): 68.5 mM; Ki (APN; [8]): 26.9 mM; Kik/Kiv (APN; APN, ratio according to Yang et al. [27]): 2.5; inhibition type against APN (APN): mixed-type; Km value of APN, fold of non-treated (APN; highest concentration): 1.15 fold; Vmax value of APN, fold of non-treated group (APN; highest concentration): 0.73 fold; IC50 [1]: 9.49 mM; inhibition rate of PDE5 [1]: 52%; reduction of PDE5 enzymatic activity [1]: 8.34–51.75%
3 | C/C=C/[S@+]([O-])C[C@H](N)C(=O)O [IA, isoalliin] | 26% | 0.28 ± 0.01 U | 6587 ± 159 k s^−1 | 0.871 ± 0.021 mU/min | 5489 ± 151 k s^−1 | 0.726 ± 0.020 mU/min | 4387 ± 129 k s^−1 | 0.580 ± 0.017 mU/min | 4018 ± 114 k s^−1 | 0.531 ± 0.015 mU/min | noncompetitive-type | 381.3 ± 6.2 s⁻¹ | 0.307 ± 0.005 mU/min | 331.6 ± 7.4 s⁻¹ | 0.267 ± 0.006 mU/min | 298.9 ± 4.9 s⁻¹ | 0.241 ± 0.004 mU/min | 275.8 ± 3.7 s⁻¹ | 0.222 ± 0.003 mU/min | 33.1 mM | Ki (PDE5): 10.8 mM; Kik/Kiv (PDE5): 13.0; Vmax value of PDE5, fold of non-treated group (PDE5; highest concentration): 0.51 fold; Ki (APN; [8]): 23.7 mM; inhibition type against APN (APN): mixed-type; Vmax value of APN, fold of non-treated group (APN; highest concentration): 0.70 fold; IC50 [1]: 8.42 mM; inhibition rate of PDE5 [1]: 51%; reduction of PDE5 enzymatic activity [1]: 17.23–51.41%
4 | O=c1c(O)c(-c2ccc(O)cc2)oc2cc(O)cc(O)c12 [KAE, kaempferol] | 29% | 0.27 ± 0.01 U | 5076 ± 98 k s^−1 | 0.671 ± 0.013 mU/min | 4591 ± 76 k s^−1 | 0.607 ± 0.010 mU/min | 2390 ± 121 k s^−1 | 0.316 ± 0.016 mU/min | 1228 ± 69 k s^−1 | 0.162 ± 0.009 mU/min | uncompetitive-type | 396.3 ± 7.5 s⁻¹ | 0.319 ± 0.006 mU/min | 352.8 ± 7.4 s⁻¹ | 0.284 ± 0.006 mU/min | 308.0 ± 5.0 s⁻¹ | 0.248 ± 0.004 mU/min | 268.5 ± 3.7 s⁻¹ | 0.216 ± 0.003 mU/min | 11.9 mM | IC50 (aminopeptidase N (APN)): > 10 mM; Ki (APN; [7]): 42.1 mM; Ki (APN; [8]): 21.7 mM; inhibition type against APN (APN): uncompetitive-type
5 | C[S@+]([O-])C[C@H](N)C(=O)O [MT, methiin] | 32% | 0.26 ± 0.02 U | 6261 ± 189 k s^−1 | 0.828 ± 0.025 mU/min | 5580 ± 159 k s^−1 | 0.738 ± 0.021 mU/min | 4007 ± 98 k s^−1 | 0.530 ± 0.013 mU/min | 3673 ± 144 k s^−1 | 0.486 ± 0.019 mU/min | uncompetitive-type | 367.0 ± 3.7 s⁻¹ | 0.296 ± 0.003 mU/min | 310.6 ± 6.2 s⁻¹ | 0.250 ± 0.005 mU/min | 246.8 ± 3.7 s⁻¹ | 0.199 ± 0.003 mU/min | 218.9 ± 2.5 s⁻¹ | 0.176 ± 0.002 mU/min | 13.4 mM | Ki (PDE5): 21.5 mM; Kik/Kiv (PDE5): 3.2; Km value of PDE5, fold of non-treated (PDE5; highest concentration): 0.74 fold; Vmax value of PDE5, fold of non-treated group (PDE5; highest concentration): 0.47 fold; Ki (APN; [8]): 12.6 mM; inhibition type against APN (APN): noncompetitive-type; Vmax value of APN, fold of non-treated group (APN; highest concentration): 0.56 fold; IC50 [1]: 7.56 mM; reduction of PDE5 enzymatic activity [1]: 24.83–53.90%
